According to ChEMBL document CHEMBL4602729, “O-Alkyl Hydroxamates Display Potent and Selective Antileishmanial Activity” (J Med Chem, 2020):
Calls of active or inactive are those of the source. The rule behind the calls is not given here.

What was measured:
Leishmania tropica = test: Antileishmanial activity against Leishmania tropica MON-102 intracellular amastigotes; format: functional, organism-based; conditions: Leishmania tropica, MON-102
[1] = Toxicity in BALB/c mouse infected with Leishmania infantum MON-1 promastigotes assessed as enzymatic alteration in plasma at 10 to 25 mg/kg, ip administered daily for 14 days starting from 28 days post infection using gold nanoparticle incorporated compound; format: organism-based; conditions: in vivo
[2] = Toxicity in BALB/c mouse infected with Leishmania infantum MON-1 promastigotes assessed as enzymatic alteration in serum at 10 to 25 mg/kg, ip administered daily for 14 days starting from 28 days post infection using PLGA nanoparticle incorporated compound; format: organism-based; conditions: in vivo
[3] = Toxicity in BALB/c mouse infected with Leishmania infantum MON-1 promastigotes assessed as swelling of spleen at 10 to 25 mg/kg, ip administered daily for 14 days starting from 28 days post infection using gold nanoparticle incorporated compound; format: organism-based; conditions: in vivo
Leishmania infantum [4] = test: (§1) Antileishmanial activity against Leishmania infantum MON-1 promastigotes infected in BALB/c mouse assessed as reduction in spleen parasite load at 5 mg/kg, ip administered daily for 14 days starting from 28 days post infection using gold nanoparticle incorporated compound measured post last dose in presence of meglumine antimoniate by Taqman qRT-PCR analysis relative to control; format: functional; set-up: scale not given: the % may be the effect or the level left
[5] = Toxicity in BALB/c mouse infected with Leishmania infantum MON-1 promastigotes assessed as histological changes at 10 to 25 mg/kg, ip administered daily for 14 days starting from 28 days post infection using gold nanoparticle incorporated compound; format: organism-based; conditions: in vivo
[6] = Toxicity in BALB/c mouse infected with Leishmania infantum MON-1 promastigotes assessed as swelling of spleen at 10 to 25 mg/kg, ip administered daily for 14 days starting from 28 days post infection using PLGA nanoparticle incorporated compound; format: organism-based; conditions: in vivo
[7] = Toxicity in BALB/c mouse infected with Leishmania infantum MON-1 promastigotes assessed as swelling of liver at 10 to 25 mg/kg, ip administered daily for 14 days starting from 28 days post infection using gold nanoparticle incorporated compound; format: organism-based; conditions: in vivo
Leishmania infantum [8] = test: as §1, with “25” for “5”, “dose” for “dose in presence of meglumine antimoniate”; format: functional; set-up: scale not given: the % may be the effect or the level left
[9] = Toxicity in BALB/c mouse infected with Leishmania infantum MON-1 promastigotes assessed as enzymatic alteration in plasma at 10 to 25 mg/kg, ip administered daily for 14 days starting from 28 days post infection using PLGA nanoparticle incorporated compound; format: organism-based; conditions: in vivo
[10] = Toxicity in BALB/c mouse infected with Leishmania infantum MON-1 promastigotes assessed as histological changes at 10 to 25 mg/kg, ip administered daily for 14 days starting from 28 days post infection using PLGA nanoparticle incorporated compound; format: organism-based; conditions: in vivo
Leishmania infantum [11] = test: as §1, with “10” for “5”, “PLGA” for “gold”, “dose” for “dose in presence of meglumine antimoniate”, “analysis” for “analysis relative to control”; format: functional, organism-based
[12] = Mutagenicity in Salmonella typhimurium TA100 at 10 to 75 uM measured after 5 days in absence of S9 fraction by Ames test; format: toxicity; conditions: salmonella enterica subsp. enterica serovar typhimurium, s9, 120 h
[13] = Toxicity in BALB/c mouse infected with Leishmania infantum MON-1 promastigotes assessed as swelling of kidney at 10 to 25 mg/kg, ip administered daily for 14 days starting from 28 days post infection using PLGA nanoparticle incorporated compound; format: organism-based; conditions: in vivo
Cytochrome P450 2D6 = Cytochrome P450 2D6 (Homo sapiens, UniProt P10635); test: Inhibition of CYP2D6 in human liver microsomes using dextromethorphan as substrate measured after 30 mins by LC-MS/MS analysis; format: ADME
Cytochrome P450 2D6, sequence (P10635 whole entry): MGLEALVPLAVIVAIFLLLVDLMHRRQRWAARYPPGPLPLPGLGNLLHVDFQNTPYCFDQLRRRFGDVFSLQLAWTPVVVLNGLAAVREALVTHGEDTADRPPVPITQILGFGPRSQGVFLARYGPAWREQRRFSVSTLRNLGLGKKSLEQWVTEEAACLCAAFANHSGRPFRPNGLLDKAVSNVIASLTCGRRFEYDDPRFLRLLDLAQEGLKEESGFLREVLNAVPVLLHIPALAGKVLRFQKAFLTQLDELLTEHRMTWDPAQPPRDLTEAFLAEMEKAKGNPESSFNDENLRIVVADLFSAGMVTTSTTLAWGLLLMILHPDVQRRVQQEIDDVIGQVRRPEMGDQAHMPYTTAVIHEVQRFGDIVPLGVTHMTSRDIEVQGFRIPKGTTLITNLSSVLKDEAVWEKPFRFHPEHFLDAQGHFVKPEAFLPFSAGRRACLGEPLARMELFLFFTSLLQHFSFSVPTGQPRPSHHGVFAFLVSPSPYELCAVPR

[14] = Mutagenicity in Salmonella typhimurium TA100 at 10 to 75 uM measured after 5 days in presence of S9 fraction by Ames test; format: toxicity, subcellular; conditions: salmonella enterica subsp. enterica serovar typhimurium, s9, 120 h
[15] = Drug metabolism in human liver microsomes assessed as vorinostat formation at 1 uM measured up to 60 mins by LC-MS/MS analysis; format: ADME, Microsome; conditions: 1 h
Leishmania infantum [16] = test: Antileishmanial activity against Leishmania infantum MON-1 intracellular amastigotes infected in Swiss mouse BMDM measured after 48 hrs by Giemsa staining based optical microscopic analysis; format: functional, organism-based; conditions: Leishmania infantum, MON-1, BMDM, 48 h
[17] = Half life in human liver microsomes at 1 uM in presence of NADPH by LC-MS/MS analysis; format: ADME, Microsome
[18] = Toxicity in BALB/c mouse infected with Leishmania infantum MON-1 promastigotes at 5 to 10 mg/kg, ip administered daily for 14 days starting from 28 days post infection using gold nanoparticle incorporated compound in presence of meglumine antimoniate; format: organism-based; conditions: in vivo
Leishmania infantum [19] = test: as §1, with “10” for “5”; format: functional; set-up: scale not given: the % may be the effect or the level left

With `O=C(CCCCCCC(=O)Nc1ccccc1)NOC(c1ccccc1)(c1ccccc1)c1ccccc1` the IC50 (Leishmania tropica) was 0.71 µM, the Activity [1] was “Non-Toxic” and the Activity [2] was “Non-Toxic”. For the same compound, the Activity [3] was “Non-Toxic”, the Activity (Leishmania infantum [4]) was 84% and the Activity [5] was “Non-Toxic”. The Activity [6] was “Non-Toxic”, the Activity [7] was “Non-Toxic” and the Activity (Leishmania infantum [8]) was 96%. The Activity [9] was “Non-Toxic”, the Activity [10] was “Non-Toxic” and the Activity (Leishmania infantum [11]) was “inactive”. For the same compound, the Activity [12] was “Non-Toxic”, the Activity [13] was “Non-Toxic” and the IC50 (Cytochrome P450 2D6) was > 86.2 µM. For the same compound, the Activity [14] was “Non-Toxic”, the Drug metabolism [15] was “Metabolite_Notdetected” and the IC50 (Leishmania infantum [16]) was 3.21 µM. For the same compound, the half-life at 1 µM [17] was 8.7 min, the Activity [18] was “Non-Toxic” and the Activity (Leishmania infantum [19]) was 92%.
